Laboratory results: ChEMBL document CHEMBL1127222, “Protection of the peptide bond against -chymotrypsin by the prodrug approach” (Bioorg Med Chem Lett, 1993)

Legend:
Type in all cases: ADME
[1] = Half life period in the presence of alpha-chymotrypsin at the concentration of 1.0 mg/mL
[2] = Half life period in buffer solution at pH 7.4: found to be stable
[3] = Half life period in the presence of alpha-chymotrypsin at the concentration of 0.5 mg/ml
[4] = Half life period in the presence of alpha-chymotrypsin at the concentration of 0.25 mg/ml
[5] = Half life period in buffer solution at pH 7.4

Compound | half-life [1] [h] | T1/2 [2] | half-life [3] [h] | half-life [4] [h] | half-life [5] [h]
CC(=O)NC(Cc1ccccc1)C(=O)NCc1ccccc1 (stereo unspecified) | 3.9 | Stable | 7.5 | 15 | –
CC(=O)N(CO)C(Cc1ccccc1)C(N)=O (stereo unspecified) | 0.533 | – | 0.583 | 0.55 | 0.633
CC(=O)NC(Cc1ccccc1)C(N)=O (stereo unspecified) | 2.3 | Stable | 4.9 | 9.6 | –
CC(=O)N(CO)C(Cc1ccccc1)C(=O)NCc1ccccc1 (stereo unspecified) | 1.05 | – | 1.07 | 1.08 | 1.05
